Species: Rattus norvegicus
Experiment: Open TG-GATES - Regimen: Single
Type: toxicity, organism-based, Sprague-Dawley
Set-up: regimen Single, gender Male, age 6 weeks
Conditions: in vivo, iv, 300 mg/kg, route intravenous injection, dose level Low; for APTT / Bas / Eos / Fbg / Hb / Ht / Lym / MCH / MCHC / MCV / Mono / PT / Plat / RBC / Ret / WBC: tissue Blood; for KIDNEY_L / KIDNEY_R / KIDNEY_TOTAL: tissue Kidney; for LIVER: tissue Liver; for ALP / ALT / AST / BUN / CRE / Ca / Cl / DBIL / GLC / IP / K / LDH / Na / PL / RALB / TBIL / TC / TG / TP / gamma-GTP: tissue Plasma

SMILES: CC(=O)OCC1=C(C(=O)O)N2C(=O)[C@@H](NC(=O)Cc3cccs3)[C@H]2SC1 [CEPHALOTHIN]
- TERMINAL_BW (3 h): 215.7 g
- APTT (3 h): 21.9 s
- Bas (3 h): 0%
- Eos (3 h): 0.6%
- Fbg (3 h): 294.6 mg/dL
- Hb (3 h): 13 g/dL
- Ht (3 h): 38.4%
- Lym (3 h): 75.4%
- MCH (3 h): 21.3 pg
- MCHC (3 h): 33.8%
- MCV (3 h): 62.9 fL
- Mono (3 h): 2.6%
- PT (3 h): 16.4 s
- Plat (3 h): 128.8 x10_4/uL
- RBC (3 h): 611.6 x10_4/ul
- Ret (3 h): 6.6%
- WBC (3 h): 98.3 x10_2/uL
- KIDNEY_L (3 h): 0.9 g
- KIDNEY_R (3 h): 1 g
- KIDNEY_TOTAL (3 h): 1.9 g
- LIVER (3 h): 9.8 g
- ALP (3 h): 1407.8 IU/L
- ALT (3 h): 49.8 IU/L
- AST (3 h): 87.8 IU/L
- BUN (3 h): 12.4 mg/dL
- CRE (3 h): 0.2 mg/dL
- Ca (3 h): 10.5 mg/dL
- Cl (3 h): 105.8 meq/L
- DBIL (3 h): 0 mg/dL
- GLC (3 h): 179 mg/dL
- IP (3 h): 7.8 mg/dL
- K (3 h): 4.1 meq/L
- LDH (3 h): 204.4 IU/L
- Na (3 h): 142.4 meq/L
- PL (3 h): 135.2 mg/dL
- RALB (3 h): 2.8 g/dL
- TBIL (3 h): 0.016 mg/dL
- TC (3 h): 69.2 mg/dL
- TG (3 h): 92 mg/dL
- TP (3 h): 5.2 g/dL
- gamma-GTP (3 h): 1.4 IU/L
- TERMINAL_BW (6 h): 208.2 g
- APTT (6 h): 22.7 s
- Bas (6 h): 0%
- Eos (6 h): 0.8%
- Fbg (6 h): 278.6 mg/dL
- Hb (6 h): 13.4 g/dL
- Ht (6 h): 38.9%
- Lym (6 h): 78%
- MCH (6 h): 21.3 pg
- MCHC (6 h): 34.4%
- MCV (6 h): 62 fL
- Mono (6 h): 2.6%
- PT (6 h): 16 s
- Plat (6 h): 118.3 x10_4/uL
- RBC (6 h): 627.2 x10_4/ul
- Ret (6 h): 5.9%
- WBC (6 h): 75.8 x10_2/uL
- KIDNEY_L (6 h): 0.9 g
- KIDNEY_R (6 h): 0.9 g
- KIDNEY_TOTAL (6 h): 1.9 g
- LIVER (6 h): 8.9 g
- ALP (6 h): 1320.4 IU/L
- ALT (6 h): 36.8 IU/L
- AST (6 h): 78.4 IU/L
- BUN (6 h): 9.6 mg/dL
- CRE (6 h): 0.2 mg/dL
- Ca (6 h): 10.3 mg/dL
- Cl (6 h): 105.6 meq/L
- DBIL (6 h): 0 mg/dL
- GLC (6 h): 171.6 mg/dL
- IP (6 h): 9 mg/dL
- K (6 h): 4.1 meq/L
- LDH (6 h): 162.4 IU/L
- Na (6 h): 141.6 meq/L
- PL (6 h): 125.4 mg/dL
- RALB (6 h): 2.9 g/dL
- TBIL (6 h): 0.022 mg/dL
- TC (6 h): 66.4 mg/dL
- TG (6 h): 75.2 mg/dL
- TP (6 h): 5.3 g/dL
- gamma-GTP (6 h): 1 IU/L
- TERMINAL_BW (9 h): 211.4 g
- APTT (9 h): 24.2 s
- Bas (9 h): 0%
- Eos (9 h): 1%
- Fbg (9 h): 284 mg/dL
- Hb (9 h): 13.2 g/dL
- Ht (9 h): 38.6%
- Lym (9 h): 81.2%
- MCH (9 h): 21.3 pg
- MCHC (9 h): 34.1%
- MCV (9 h): 62.3 fL
- Mono (9 h): 2%
- PT (9 h): 16.1 s
- Plat (9 h): 135 x10_4/uL
- RBC (9 h): 619.6 x10_4/ul
- Ret (9 h): 6.4%
- WBC (9 h): 77.3 x10_2/uL
- KIDNEY_L (9 h): 1 g
- KIDNEY_R (9 h): 1 g
- KIDNEY_TOTAL (9 h): 1.9 g
- LIVER (9 h): 8.6 g
- ALP (9 h): 1157.8 IU/L
- ALT (9 h): 34.2 IU/L
- AST (9 h): 69 IU/L
- BUN (9 h): 10 mg/dL
- CRE (9 h): 0.1 mg/dL
- Ca (9 h): 10.4 mg/dL
- Cl (9 h): 106.2 meq/L
- DBIL (9 h): 0 mg/dL
- GLC (9 h): 180.8 mg/dL
- IP (9 h): 9.6 mg/dL
- K (9 h): 4.5 meq/L
- LDH (9 h): 128.6 IU/L
- Na (9 h): 141 meq/L
- PL (9 h): 115.8 mg/dL
- RALB (9 h): 2.8 g/dL
- TBIL (9 h): 0.02 mg/dL
- TC (9 h): 60.6 mg/dL
- TG (9 h): 71.2 mg/dL
- TP (9 h): 5.1 g/dL
- gamma-GTP (9 h): 1.4 IU/L
- TERMINAL_BW (24 h): 226.1 g
- APTT (24 h): 22 s
- Bas (24 h): 0%
- Eos (24 h): 0.8%
- Fbg (24 h): 303.8 mg/dL
- Hb (24 h): 13.2 g/dL
- Ht (24 h): 38.9%
- Lym (24 h): 81%
- MCH (24 h): 20.6 pg
- MCHC (24 h): 34%
- MCV (24 h): 60.4 fL
- Mono (24 h): 2.2%
- PT (24 h): 16.7 s
- Plat (24 h): 120 x10_4/uL
- RBC (24 h): 645.2 x10_4/ul
- Ret (24 h): 6%
- WBC (24 h): 89.2 x10_2/uL
- KIDNEY_L (24 h): 1 g
- KIDNEY_R (24 h): 1 g
- KIDNEY_TOTAL (24 h): 2 g
- LIVER (24 h): 10.2 g
- ALP (24 h): 1605.2 IU/L
- ALT (24 h): 53 IU/L
- AST (24 h): 77.6 IU/L
- BUN (24 h): 17 mg/dL
- CRE (24 h): 0.2 mg/dL
- Ca (24 h): 10.6 mg/dL
- Cl (24 h): 105.8 meq/L
- DBIL (24 h): 0 mg/dL
- GLC (24 h): 184.4 mg/dL
- IP (24 h): 7.2 mg/dL
- K (24 h): 4.3 meq/L
- LDH (24 h): 171.6 IU/L
- Na (24 h): 142.4 meq/L
- PL (24 h): 135.6 mg/dL
- RALB (24 h): 2.9 g/dL
- TBIL (24 h): 0.016 mg/dL
- TC (24 h): 70.6 mg/dL
- TG (24 h): 90 mg/dL
- TP (24 h): 5.4 g/dL
- gamma-GTP (24 h): 2 IU/L

Reference: ChEMBL document CHEMBL3885861, “Open TG-GATES”
